Reference: patent publication US5874461A, “Use of Nebivolol as an anti-atherogenic” (priority 1995, dated 1999)

Experiments:
human LDL = assay: In vitro oxidation of human LDL (Cu-induced conjugated diene formation at 234 nm); type: biochemical; settings: in vitro
Procedure: In vitro oxidation of human LDL Human venous blood was collected on EDTA (2.68 mM final concentration). Plasma was isolated by centrifugation. NaBr (37.3 mg/ml) was added and solubulized (final density 1.036 g/ml). Centrifuge tubes were first filled to a level corresponding to 2/3 of their maximal volume, further filled with a NaBr solution of 1.036 g/ml and then centrifuged for 18 hours at 45000 rpm in a 50 Ti rotor (Beckmann). After centrifugation, floating lipoproteins were discarded. The remaining solution was adjusted to a density of 1.055 g/ml. Filling of the centrifuge tubes and centrifugation were repeated as described above. After centrifugation, floating LDL was dialysed against a buffer containing 127 mM NaCl, 8 mM Na2 HPO4.2H2 O, 2.7 mM KCl and 1.47 mM KH2 PO4 at pH 7.4. After dialysis, LDL was filtered though a Millipore filter (0.45 μM) and protein content was determined. A dilution of 25 μg/ml was prepared with a millipored dialysis buffer. Oxidation was determined in a Pharmacia Ultraspec III spectrophotometer. Conjugated diene formation was registered at 234 nm. Two μl of a drug or solvent (DMSO) were added to Eppendorf tubes followed by 1 ml of LDL (25 μg/ml) and these substances were gently mixed and centrifuged for 1 min at 13000 g. The solution was pipetted in a Quartz cuvet that was thermostatised in the spectrophotometer at 37° C. After equilibration, the oxidation reaction was started by the addition of CuSO4 (final concentration 10 μM). Absorbance was measured every 3 minutes during the time course of the experiment. The absorbance at 234 nm was divided into three phases: a lag phase, a propagation phase and a decomposition phase (FIG. 1). The lag phase was defined as the intercept with the baseline of the tangent of the slope of the absorbance curve of the propagation phase. The rate of oxidation was defined as the tangent of the slope. Tmax was defined as the time required to attain the maximum absorbance between the propagation and the decomposition phase. The absorbance at tmax minus the absorbance at to was taken as an indicator of the total amount of dienes formed. To verify the reproducibility of the assay, a reference LDL sample was prepared and kept in darkness under nitrogen at 4° C. This reference sample was included in every oxidation experiment. LDL was isolated from 23 subjects. Plasma cholesterol ranged from 156 to 278 mg/dl (mean 213 mg/dl), triglycerides ranged from 47 to 328 mg/dl (mean 191 mg/dl) and phospholipids ranged from 178 to 327 mg/dl (mean 231 mg/dl).

[1] = system: spontaneous hypertensive rats; settings: acute; cited from earlier work
anaesthetized dogs = settings: anaesthesized dogs; cited from earlier work
[2] = system: rats (age-associated vascular pathology); assay: In-vivo anti-atheromatic effect: 24-month oral study in rats, histological score of vascular degeneration/aging
Procedure: In order to verify whether nebivolol had any effects on age-associated vascular pathology, a number of rats were administered nebivolol orally at dosages of 0 (carrier-only), 2.5, 10 and 40 mg/kg during 24 months. As a carrier there was used 2-hydroxypropyl-β-cyclodextrin which improves the bioavailability of nebivolol. At each dose a male and a female group of 50 were entered in the 2 year study. […] The test animals were autopsied and observed for histological non-neoplastic changes.
vasculopathy of the abdominal mesothelia, pancreas, and testis,
focal and diffuse hyperplasia of the parathyroid gland, and
the renal histology, in particular the number of basophilic tubuli, evidence for chronic renal disease and for mineralization.
Histopathological observations received a score from 0 to 3 as follows:
0: no histological change
1: slight histological change
2: moderate histological change
3: severe histological change.
For each observation a mean score was calculated. The observed ratings were analysed using the Mann-Whitney U test (two tailed probability) to detect statistically significant differences between the control groups and the treated groups. Significance computed by Mann-Whitney U test two-tailed: * p<0.05 ** p<0.01 p<0.001.

[3] = females, 2.5 mg/kg oral, 24 months
[4] = females, 10 mg/kg oral, 24 months
[5] = females, 40 mg/kg oral, 24 months
[6] = males, 2.5 mg/kg oral, 24 months
[7] = males, 10 mg/kg oral, 24 months
[8] = males, 40 mg/kg oral, 24 months

For `O[C@H](CNC[C@@H](O)[C@H]1CCc2cc(F)ccc2O1)[C@@H]1CCc2cc(F)ccc2O1` (relative stereo) [nebivolol, (RSSS) and (SRRR) α,α'-iminobis(methylene)bis[6-fluoro-2-chroman-methanol]], the “antioxidative effect on human LDL” value (human LDL) is listed as “no antioxidative effect”, the blood pressure [1] is listed as “acutely lowers blood pressure” and the stroke volume (anaesthetized dogs) is listed as “augments stroke volume”. The “total peripheral vascular resistance” value (anaesthetized dogs) was “decreases total peripheral vascular resistance”, the “normal aging of the vascular system” value ([2]; chronic treatment, versus control animals) was “the normal aging of the vascular system as seen in the control animals is suppressed” and the “Kidney: basophilic tubuli, mean score (0-3)” value (shortened to “Kidney: basophilic tubuli”) [2, 3] was 0.18. The “Kidney: chronic disease, mean score (0-3)” value (from here on “Kidney: chronic disease”) [2, 3] was 0.88, the “Kidney: mineralization (parenchum/pelvis), mean score (0-3)” value [2, 3] was 0.84 and the “Pancreas: vasculopathy, mean score (0-3)” value [2, 3] was 0.04. The “Kidney: basophilic tubuli” value [2, 4] was 0.18, the “Kidney: chronic disease” value [2, 4] was 0.92 and the “Kidney: mineralization (parenchum/pelvis), mean score (0-3)” value [2, 4] was 0.64. The “Pancreas: vasculopathy, mean score (0-3)” value [2, 4] was 0.02, the “Kidney: basophilic tubuli” value [2, 5] was 0.42 and the “Kidney: chronic disease” value [2, 5] was 0.78. For the same compound, the “Kidney: mineralization (parenchum/pelvis), mean score (0-3)” value [2, 5] was 0.14, the “Pancreas: vasculopathy, mean score (0-3)” value [2, 5] was 0.00 and the “Kidney: basophilic tubuli” value [2, 6] was 0.18. For the same compound, the “Kidney: chronic disease” value [2, 6] was 1.32, the “Pancreas: vasculopathy, mean score (0-3)” value [2, 6] was 0.04 and the “Parathyroid gland: diffuse hyperplasia, mean score (0-3)” value (shortened to “Parathyroid gland: diffuse hyperplasia”) [2, 6] was 0.08. For the same compound, the “Parathyroid gland: focal hyperplasia, mean score (0-3)” value (“Parathyroid gland: focal hyperplasia” below) [2, 6] was 0.04, the “Testis: vasculopathy, mean score (0-3)” value [2, 6] was 0.20 and the “Kidney: basophilic tubuli” value [2, 7] was 0.18. For the same compound, the “Kidney: chronic disease” value [2, 7] was 1.24, the “Pancreas: vasculopathy, mean score (0-3)” value [2, 7] was 0.02 and the “Parathyroid gland: diffuse hyperplasia” value [2, 7] was 0.15. The “Parathyroid gland: focal hyperplasia” value [2, 7] was 0.02, the “Testis: vasculopathy, mean score (0-3)” value [2, 7] was 0.08 and the “Abdominal mesothelia: vasculopathy, mean score (0-3)” value [2, 8] was 0.00. For the same compound, the “Kidney: basophilic tubuli” value [2, 8] was 0.60, the “Kidney: chronic disease” value [2, 8] was 0.66 and the “Pancreas: vasculopathy, mean score (0-3)” value [2, 8] was 0.00. For the same compound, the “Parathyroid gland: diffuse hyperplasia” value [2, 8] was 0.02, the “Parathyroid gland: focal hyperplasia” value [2, 8] was 0.00 and the “Testis: vasculopathy, mean score (0-3)” value [2, 8] was 0.02.
